Tested on: not listed separately
Experiment: Cmax in rat plasma at 20 mg/kg, po
Assay type: ADME, organism-based
Parameters: dose 20 mg/kg, route oral
Conditions: not given

| SMILES | Cmax [ng/mL] |
| --- | --- |
| CCN/C(=N\S(=O)(=O)c1ccc(N)cc1)N1CC2(C=N1)CCCC2 | 1100 |

Tested on: not listed separately
Experiment: in vitro
Conditions: Sprague Dawley, rat, hepatocytes

| SMILES | hepatocyte CLint [µL/min/1e6 cells] |
| --- | --- |
| CCN/C(=N\S(=O)(=O)c1ccccc1)N1CC(CC)C=N1 (stereo not drawn) | 92 |
| CCN/C(=N\S(=O)(=O)c1ccc2[nH]ccc2c1)N1CC2(C=N1)CCCC2 | 87 |
| CCN/C(=N\S(=O)(=O)c1ccc(N)cc1)N1CC2(C=N1)CCNCC2 | 5 |
| CCN/C(=N\S(=O)(=O)c1ccc(O)c(Cl)c1)N1CC2(C=N1)CCCC2 | 66 |
| CCN/C(=N\S(=O)(=O)c1ccc(N)cc1)N1CC(CC)C=N1 (stereo not drawn) | 34 |
| CCN/C(=N\S(=O)(=O)c1ccc(N)cc1)N1CC(C)(C)C=N1 | 20 |
| CCN/C(=N\S(=O)(=O)c1ccc2[nH]c(C(F)(F)F)cc2c1)N1CC(C)(C)C=N1 | 87 |
| CCN/C(=N\S(=O)(=O)c1ccc2[nH]ncc2c1)N1CC2(C=N1)CCCC2 | 99 |
| CCN/C(=N\S(=O)(=O)c1ccc(N)cc1)N1CC2(C=N1)CCCCC2 | 53 |
| CCN/C(=N\S(=O)(=O)c1ccc(N)c(Cl)c1)N1CC(CC)C=N1 (stereo not drawn) | 87 |
| CCN/C(=N\S(=O)(=O)c1ccc(N)cc1)N1CC2(C=N1)CCCC2 | 33 |
| CCN/C(=N\S(=O)(=O)c1ccc(O)cc1)N1CC2(C=N1)CCCC2 | 42 |

Molecular target: Serotonin (5-HT) receptor
Experiment: Binding affinity to 5-HT receptor (unknown origin)
Assay type: protein assay, Homo sapiens
Conditions: not given

| SMILES | Ki [nM] |
| --- | --- |
| CCN/C(=N\S(=O)(=O)c1ccc(N)cc1)N1CC2(C=N1)CCCC2 | > 1000 |

Molecular target: not listed separately
Experiment: Binding affinity to alpha adrenergic receptor (unknown origin)
Parameters: species or system Homo sapiens
Conditions: not given

| SMILES | Ki [nM] |
| --- | --- |
| CCN/C(=N\S(=O)(=O)c1ccc(N)cc1)N1CC2(C=N1)CCCC2 | > 1000 |

Molecular target: Cannabinoid receptor (Homo sapiens, UniProt P34972+P21554)
Experiment: Binding affinity to Cannabinoid receptor (unknown origin)
Assay type: protein assay
Conditions: not given

| SMILES | Ki [nM] |
| --- | --- |
| CCN/C(=N\S(=O)(=O)c1ccc(N)cc1)N1CC2(C=N1)CCCC2 | > 1000 |

Molecular target: not listed separately
Experiment: Binding affinity to Muscarinic receptor (unknown origin)
Parameters: species or system Homo sapiens
Conditions: not given

| SMILES | Ki [nM] |
| --- | --- |
| CCN/C(=N\S(=O)(=O)c1ccc(N)cc1)N1CC2(C=N1)CCCC2 | > 1000 |

Tested on: Rattus norvegicus
Experiment: Inhibition of cognitive impairment in po dosed rat administered 0.5 hrs before testing
Assay type: functional
Conditions: not given

| SMILES | LED [mg/kg] |
| --- | --- |
| CCN/C(=N\S(=O)(=O)c1ccc(N)cc1)N1CC2(C=N1)CCCC2 | 20 |

Molecular target: Dopamine receptor
Experiment: Binding affinity to dopamine receptor (unknown origin)
Assay type: protein assay, Homo sapiens
Conditions: not given

| SMILES | Ki [nM] |
| --- | --- |
| CCN/C(=N\S(=O)(=O)c1ccc(N)cc1)N1CC2(C=N1)CCCC2 | > 1000 |

Tested on: not listed separately
Experiment: in vitro
Conditions: human, hepatocytes

| SMILES | hepatocyte CLint [µL/min/1e6 cells] |
| --- | --- |
| CCN/C(=N\S(=O)(=O)c1ccccc1)N1CC(CC)C=N1 (stereo not drawn) | 15 |
| CCN/C(=N\S(=O)(=O)c1ccc2[nH]ccc2c1)N1CC2(C=N1)CCCC2 | 11 |
| CCN/C(=N\S(=O)(=O)c1ccc(N)cc1)N1CC2(C=N1)CCNCC2 | 1 |
| CCN/C(=N\S(=O)(=O)c1ccc(O)c(Cl)c1)N1CC2(C=N1)CCCC2 | 34 |
| CCN/C(=N\S(=O)(=O)c1ccc(N)c(Cl)c1)N1CC2(C=N1)CCCC2 | 27 |
| CCN/C(=N\S(=O)(=O)c1cc(O)cc(Cl)c1)N1CC2(C=N1)CCCC2 | 107 |
| CCN/C(=N\S(=O)(=O)c1ccc(N)cc1)N1CC(CC)C=N1 (stereo not drawn) | 4 |
| CCN/C(=N\S(=O)(=O)c1ccc(N)cc1)N1CC(C)(C)C=N1 | < 1.4 |
| CCN/C(=N\S(=O)(=O)c1ccc2[nH]c(C(F)(F)F)cc2c1)N1CC(C)(C)C=N1 | 22 |
| CCN/C(=N\S(=O)(=O)c1ccc2[nH]ncc2c1)N1CC2(C=N1)CCCC2 | 19 |
| CCN/C(=N\S(=O)(=O)c1ccc(N)cc1)N1CC2(C=N1)CCCCC2 | 17 |
| CCN/C(=N\S(=O)(=O)c1ccc(N)c(Cl)c1)N1CC(CC)C=N1 (stereo not drawn) | 10 |
| CCN/C(=N\S(=O)(=O)c1ccc(N)cc1)N1CC2(C=N1)CCCC2 | 8 |
| CCN/C(=N\S(=O)(=O)c1ccc(O)cc1)N1CC2(C=N1)CCCC2 | 21 |
| CCN/C(=N\S(=O)(=O)c1ccc2[nH]ccc2c1)N1CC2(C=N1)CCNCC2 | 1 |

Tested on: not listed separately
Experiment: Clearance in rat at 10 mg/kg, po
Assay type: ADME, organism-based
Conditions: in vivo

| SMILES | CL/F [mL/min/kg] |
| --- | --- |
| CCN/C(=N\S(=O)(=O)c1ccc(N)cc1)N1CC2(C=N1)CCCC2 | 26 |

Molecular target: T1, 5-hydroxytryptamine receptor 6 (Homo sapiens, UniProt P50406)
T1 sequence (P50406 whole entry): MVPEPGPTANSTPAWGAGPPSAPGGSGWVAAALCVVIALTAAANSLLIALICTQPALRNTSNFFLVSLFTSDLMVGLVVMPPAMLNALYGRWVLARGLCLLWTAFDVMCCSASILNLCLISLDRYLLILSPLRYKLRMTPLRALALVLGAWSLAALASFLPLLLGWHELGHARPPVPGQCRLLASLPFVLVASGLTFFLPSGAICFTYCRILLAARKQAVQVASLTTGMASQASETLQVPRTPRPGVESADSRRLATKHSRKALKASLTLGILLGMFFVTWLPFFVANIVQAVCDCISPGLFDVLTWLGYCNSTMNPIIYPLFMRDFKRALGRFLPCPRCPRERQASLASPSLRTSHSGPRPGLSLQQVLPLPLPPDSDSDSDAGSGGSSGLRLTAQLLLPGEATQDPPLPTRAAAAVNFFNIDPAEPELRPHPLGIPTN
Experiment: Antagonist activity at human recombinant 5-HT6 receptor expressed in CHO cells assessed as inhibition of agonist induced intracellular calcium levels by aequorin assay
Assay type: functional, cell-based
Conditions: read-out: pA2 (converted)

| SMILES | Kb [nM] |
| --- | --- |
| CCN/C(=N\S(=O)(=O)c1ccc2[nH]ccc2c1)N1CC2(C=N1)CCCC2 | 0.316 |
| CCN/C(=N\S(=O)(=O)c1ccc(O)c(Cl)c1)N1CC2(C=N1)CCCC2 | 10 |
| CCN/C(=N\S(=O)(=O)c1cc(O)cc(Cl)c1)N1CC2(C=N1)CCCC2 | 0.0501 |
| CCN/C(=N\S(=O)(=O)c1ccc(N)cc1)N1CC(CC)C=N1 (stereo not drawn) | 3.98 |
| CCN/C(=N\S(=O)(=O)c1ccc2[nH]c(C(F)(F)F)cc2c1)N1CC(C)(C)C=N1 | > 1000 |
| CCN/C(=N\S(=O)(=O)c1ccc2[nH]ncc2c1)N1CC2(C=N1)CCCC2 | 12.6 |
| CCN/C(=N\S(=O)(=O)c1ccc(N)cc1)N1CC2(C=N1)CCCCC2 | 5.01 |
| CCN/C(=N\S(=O)(=O)c1ccc(N)c(Cl)c1)N1CC(CC)C=N1 (stereo not drawn) | 0.794 |
| CCN/C(=N\S(=O)(=O)c1ccc(N)cc1)N1CC2(C=N1)CCCC2 | 3.98 |
| CCN/C(=N\S(=O)(=O)c1ccc(O)cc1)N1CC2(C=N1)CCCC2 | 3.16 |

Tested on: not listed separately
Experiment: Tmax in rat plasma at 10 mg/kg, po
Assay type: ADME, organism-based
Conditions: not given

| SMILES | Tmax [min] |
| --- | --- |
| CCN/C(=N\S(=O)(=O)c1ccc(N)cc1)N1CC2(C=N1)CCCC2 | 30 |

Tested on: not listed separately
Experiment: Ratio of drug uptake in rat CNS to plasma at 10 mg/kg, po
Assay type: ADME, organism-based
Conditions: not given

| SMILES | Kp |
| --- | --- |
| CCN/C(=N\S(=O)(=O)c1ccc(N)cc1)N1CC2(C=N1)CCCC2 | 0.1 |

Tested on: not listed separately
Experiment: Tmax in rat CNS at 10 mg/kg, po
Assay type: ADME, organism-based
Conditions: not given

| SMILES | Tmax [min] |
| --- | --- |
| CCN/C(=N\S(=O)(=O)c1ccc(N)cc1)N1CC2(C=N1)CCCC2 | 30 |

Tested on: LLC-PK1
Experiment: not given
Conditions: pig, llc-pk1, 3 h; at 1 µg/mL

| SMILES | permeability [%] |
| --- | --- |
| CCN/C(=N\S(=O)(=O)c1ccccc1)N1CC(CC)C=N1 (stereo not drawn) | 38.2 |
| CCN/C(=N\S(=O)(=O)c1ccc(N)cc1)N1CC2(C=N1)CCNCC2 | 0.3 |
| CCN/C(=N\S(=O)(=O)c1ccc(O)c(Cl)c1)N1CC2(C=N1)CCCC2 | 20.5 |
| CCN/C(=N\S(=O)(=O)c1ccc(N)c(Cl)c1)N1CC2(C=N1)CCCC2 | 38.1 |
| CCN/C(=N\S(=O)(=O)c1ccc(N)cc1)N1CC(CC)C=N1 (stereo not drawn) | 31.6 |
| CCN/C(=N\S(=O)(=O)c1ccc(N)cc1)N1CC(C)(C)C=N1 | 31.6 |
| CCN/C(=N\S(=O)(=O)c1ccc(N)cc1)N1CC2(C=N1)CCCCC2 | 36.5 |
| CCN/C(=N\S(=O)(=O)c1ccc(N)c(Cl)c1)N1CC(CC)C=N1 (stereo not drawn) | 38.5 |
| CCN/C(=N\S(=O)(=O)c1ccc(N)cc1)N1CC2(C=N1)CCCC2 | 35.1 |
| CCN/C(=N\S(=O)(=O)c1ccc(O)cc1)N1CC2(C=N1)CCCC2 | 32 |

Tested on: not listed separately
Experiment: Fraction unbound in rat brain at 10 mg/kg, po
Assay type: ADME, organism-based
Conditions: not given

| SMILES | fraction unbound |
| --- | --- |
| CCN/C(=N\S(=O)(=O)c1ccc(N)cc1)N1CC2(C=N1)CCCC2 | 0.31 |

Tested on: MDR
Experiment: in vitro
Conditions: pig, LLC-PK1
Description: Permeability across pig LLC-PK1 cells expressing MDR assessed as ratio of bottom to top transport over top to bottom transport at 1 ug/ml after 3 hrs by LC/MS analysis

| SMILES | efflux ratio at 3 h, 1 ug/ml |
| --- | --- |
| CCN/C(=N\S(=O)(=O)c1ccccc1)N1CC(CC)C=N1 (stereo not drawn) | 1.1 |
| CCN/C(=N\S(=O)(=O)c1ccc(O)c(Cl)c1)N1CC2(C=N1)CCCC2 | 2.4 |
| CCN/C(=N\S(=O)(=O)c1ccc(N)cc1)N1CC(CC)C=N1 (stereo not drawn) | 2.4 |
| CCN/C(=N\S(=O)(=O)c1ccc(N)cc1)N1CC(C)(C)C=N1 | 3 |
| CCN/C(=N\S(=O)(=O)c1ccc(N)cc1)N1CC2(C=N1)CCCCC2 | 3.3 |
| CCN/C(=N\S(=O)(=O)c1ccc(N)c(Cl)c1)N1CC(CC)C=N1 (stereo not drawn) | 1.6 |
| CCN/C(=N\S(=O)(=O)c1ccc(N)cc1)N1CC2(C=N1)CCCC2 | 2.9 |
| CCN/C(=N\S(=O)(=O)c1ccc(O)cc1)N1CC2(C=N1)CCCC2 | 5.9 |

Molecular target: T1, 5-hydroxytryptamine receptor 6
Experiment: Displacement of [3H]-N-Methyl-Lysergic acid diethylamide from human 5-HT6 receptor expressed in CHO cells after 30 mins by liquid scintillation counting analysis
Assay type: cell-based
Conditions: not given

| SMILES | Ki [nM] |
| --- | --- |
| CCN/C(=N\S(=O)(=O)c1ccc2[nH]ccc2c1)N1CC2(C=N1)CCCC2 | 4.8 |
| CCN/C(=N\S(=O)(=O)c1ccc(N)cc1)N1CC2(C=N1)CCNCC2 | 14.2 |
| CCN/C(=N\S(=O)(=O)c1ccc(O)c(Cl)c1)N1CC2(C=N1)CCCC2 | 14.6 |
| CCN/C(=N\S(=O)(=O)c1ccc(N)c(Cl)c1)N1CC2(C=N1)CCCC2 | 1.8 |
| CCN/C(=N\S(=O)(=O)c1cc(O)cc(Cl)c1)N1CC2(C=N1)CCCC2 | 6.1 |
| CCN/C(=N\S(=O)(=O)c1ccc(N)cc1)N1CC(CC)C=N1 (stereo not drawn) | 7.2 |
| CCN/C(=N\S(=O)(=O)c1ccc(N)cc1)N1CC(C)(C)C=N1 | 20.6 |
| CCN/C(=N\S(=O)(=O)c1ccc2[nH]c(C(F)(F)F)cc2c1)N1CC(C)(C)C=N1 | 160 |
| CCN/C(=N\S(=O)(=O)c1ccc2[nH]ncc2c1)N1CC2(C=N1)CCCC2 | 28.6 |
| CCN/C(=N\S(=O)(=O)c1ccc(N)cc1)N1CC2(C=N1)CCCCC2 | 7.1 |
| CCN/C(=N\S(=O)(=O)c1ccc(N)c(Cl)c1)N1CC(CC)C=N1 (stereo not drawn) | 1.5 |
| CCN/C(=N\S(=O)(=O)c1ccc(O)cc1)N1CC2(C=N1)CCCC2 | 5.8 |
| CCN/C(=N\S(=O)(=O)c1ccc2[nH]ccc2c1)N1CC2(C=N1)CCNCC2 | 11.6 |

Molecular target: Voltage-gated inwardly rectifying potassium channel KCNH2 (Homo sapiens, UniProt Q12809)
Sequence (Q12809 whole entry): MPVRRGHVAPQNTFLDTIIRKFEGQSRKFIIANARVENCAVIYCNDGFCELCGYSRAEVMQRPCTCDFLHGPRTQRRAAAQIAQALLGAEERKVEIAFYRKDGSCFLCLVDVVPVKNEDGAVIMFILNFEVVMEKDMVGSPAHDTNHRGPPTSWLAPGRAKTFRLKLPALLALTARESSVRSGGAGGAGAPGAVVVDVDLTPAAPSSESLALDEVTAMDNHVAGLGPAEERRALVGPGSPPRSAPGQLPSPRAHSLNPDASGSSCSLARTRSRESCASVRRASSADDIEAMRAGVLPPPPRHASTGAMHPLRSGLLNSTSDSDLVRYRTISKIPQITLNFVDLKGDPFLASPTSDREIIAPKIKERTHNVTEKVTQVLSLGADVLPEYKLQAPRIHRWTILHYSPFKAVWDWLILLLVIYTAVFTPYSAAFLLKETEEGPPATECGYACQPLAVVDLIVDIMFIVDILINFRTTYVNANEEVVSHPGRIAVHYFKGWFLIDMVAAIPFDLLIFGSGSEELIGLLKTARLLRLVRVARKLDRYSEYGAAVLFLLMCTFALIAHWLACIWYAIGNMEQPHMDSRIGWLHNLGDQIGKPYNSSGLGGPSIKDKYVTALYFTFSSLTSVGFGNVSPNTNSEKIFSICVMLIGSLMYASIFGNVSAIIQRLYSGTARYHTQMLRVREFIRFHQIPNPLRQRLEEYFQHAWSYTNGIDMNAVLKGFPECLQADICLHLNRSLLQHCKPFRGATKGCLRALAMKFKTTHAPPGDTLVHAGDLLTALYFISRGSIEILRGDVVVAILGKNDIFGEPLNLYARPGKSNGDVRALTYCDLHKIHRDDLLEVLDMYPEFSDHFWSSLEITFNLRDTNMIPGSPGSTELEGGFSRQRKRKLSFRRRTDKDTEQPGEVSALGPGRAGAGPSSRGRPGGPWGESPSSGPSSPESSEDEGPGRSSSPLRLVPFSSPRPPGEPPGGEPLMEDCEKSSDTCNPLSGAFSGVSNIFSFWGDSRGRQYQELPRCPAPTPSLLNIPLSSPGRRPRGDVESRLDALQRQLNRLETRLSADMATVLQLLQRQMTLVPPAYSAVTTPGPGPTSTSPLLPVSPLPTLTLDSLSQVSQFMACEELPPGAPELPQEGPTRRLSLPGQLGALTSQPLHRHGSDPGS
Experiment: Inhibition of human ERG
Conditions: not given

| SMILES | IC50 [nM] |
| --- | --- |
| CCN/C(=N\S(=O)(=O)c1ccc(N)cc1)N1CC2(C=N1)CCCC2 | > 10000 |

Tested on: not listed separately
Experiment: Oral bioavailability in rat at 10 mg/kg
Assay type: ADME, organism-based
Conditions: in vivo

| SMILES | bioavailability [%] |
| --- | --- |
| CCN/C(=N\S(=O)(=O)c1ccc(N)cc1)N1CC2(C=N1)CCCC2 | 18 |

Tested on: not listed separately
Experiment: Lipophilicity, log D of the compound at pH 7
Assay type: physicochemical
Conditions: buffer

| SMILES | logD |
| --- | --- |
| CCN/C(=N\S(=O)(=O)c1ccc(N)cc1)N1CC2(C=N1)CCCC2 | 1 |
